“Also recorded” adds a separate entry of the source.
Assays:
K7M2wt tumors [1] = assay: Ultrasound shear wave elastography of tumor stiffness; type: in vivo, mouse; settings: 10 mg/kg daily ketotifen
Protocol: (§1) The mechanotherapeutic potential of ketotifen in reducing matrix stiffness was primarily assessed non-invasively and longitudinally using ultrasound elastography. Briefly, assessment of tumor elastic modulus was […] via shear wave elastography using a Philips EPIQ Elite Ultrasound scanner with an eL18-4 linear array, approved for clinical scanning was performed as described in previous study. Elastic modulus values of the areas of the region of interest (ROI) with the highest shear wave quality were obtained. The elastic modulus value presented is the average within the tumor region. Shear wave imaging of MCA205 tumors was performed prior to ketotifen treatment on day 7, to determine baseline level of tumor stiffness, after three days of treatment (day 11), and on the last day of treatment just before tumor removal (day 15). Ultrasound imaging of K7M2wt tumors was performed on day 24, 28, and 31. The effect of ketotifen on chemo-immunotherapy combination with regards to MCA205 tissue elasticity was assessed on day 7 before the first cycle of doxorubicin+anti-PD-L1 treatment, one day after second cycle (day 11) and two days after the last cycle (day 15). Ultrasound imaging of K7M2wt tumors was performed on day 22 (i.e., four days post daily ketotifen and before first cycle of combination treatment) and upon completion of treatment (day 32).

MCA205 tumors [2] = assay: as above; type: in vivo, mouse; settings: 10 mg/kg daily ketotifen, dose that reduced stiffness the most
Protocol: as §1

murine MC/9 MCs = assay: MC/9 - NIH3T3 transwell co-culture, mast cell degranulation by β-hexosaminidase release; type: cell-based
Protocol: Given that both MCs and fibroblasts are present in the TME, the consequences of MC activation on myofibroblasts was explored using a co-culture assay in which murine MC/9 MCs and NIH3T3 myofibroblasts were separated by a transwell chamber with micropores that only allowed chemical communication (FIG. 13A). In this system, degranulation efficiency was determined by measuring the concentration of β-hexosaminidase (β-hex) in the supernatant. MC degranulation was induced through exposure to compound 48/80 (C48/80), which binds to the MRGPRB2 receptor (the orthologue of the human G-protein-coupled receptor MRGPRX2). […] Co-cultures treated with a vehicle control and Triton X-100 were used as internal assay control to evaluate background and maximum β-hex release, respectively. Transforming growth factor (TGF)-β1 was used as a fibroblast activator due to its capacity to induce a myofibroblast phenotype of the NIH3T3 cells. MC/9 cells were cultivated with NIH3T3 cells for 24 hours and then treated with either ketotifen or TGFβ for additional 24 hours in low serum medium, followed by a 30 minute sensitization with C48/80.

MCA205 tumors [3] = assay: qPCR mRNA expression levels in tumors; type: in vivo, mouse; settings: 10 mg/kg ketotifen
Protocol: Total RNA was isolated from breast tumors according to the standard Trizol-based protocol (Invitrogen), and cDNA synthesis was performed using reverse transcriptase III (RT-III) enzyme and random hexamers (Invitrogen). Real-time polymerase chain reaction was performed using Sybr Fast Universal Master Mix (KAPA). Reactions were performed using a CFX-96 real-time PCR detection system (BioRad) at the following conditions: 95° C. for 2 minutes, 95° C. for 2 seconds, 60° C. for 20 seconds, 60° C. for 1 second, steps 2-4 for 39 cycles. Real-time PCR analysis and calculation of changes in gene expression between compared groups was performed using the ΔΔ^Ct method. Relative gene expression was normalized based on the expression of β-actin. For qPCR analysis, 3-5 biological samples were used per treatment and 3 technical replicates for each sample.
mRNA expression levels were evaluated in both mouse sarcoma models by qPCR, as described above.
RT-qPCR, as described above, […].

K7M2wt tumors [4] = assay: Proliferation of CAFs, α-SMA / Ki-67 immunostaining; type: in vivo, mouse; settings: 10 mg/kg ketotifen
Protocol: (§2) Proliferation of CAFs was evaluated by immunostaining for the presence of alpha-smooth muscle actin (α-SMA) (ab5694, Abcam; diluted 1:50) protein and Ki-67 (Abcam; diluted 1:200) proliferation marker following antigen retrieval, 1 hour incubation in serum solution (10% FBS, 3% donkey serum in 1×PBS), and 1 hour incubation in blocking solution for endogenous mouse IgG (Abcam; diluted 1:100). Following washes with TBS-T (0.25% Tween-20), Alexa Fluor-647 anti-rabbit IgG (H+L) (Invitrogen; diluted 1:400) and Fluor-488 anti-rat IgG (H+L) (Invitrogen; diluted 1:400) secondary antibodies and DAPR (Sigma diluted 1:100 of 1 mg/mL stock) were applied for 1 hour at room temperature. Sections were then mounted on microscope slides using the ProLong gold antifade mountant (Invitrogen) and covered with a glass coverslip. CAF proliferation fraction was detected as the ratio of overlapping α-SMA (green) and Ki67 (red) positive signal to total CAF signal (α-SMA^+), indicating CAFs.

MCA205 tumors [5] = assay: as above; type: in vivo, mouse; settings: 10 mg/kg ketotifen
Protocol: as §2

MCA205 tumors [6] = assay: Tumor-opening experiment (residual solid stress); type: in vivo, mouse; settings: 5 mg/kg and 10 mg/kg ketotifen
Protocol: Tumor-opening experiments were performed as an indicator of the amount of residual stress contained within the tissue, using the values of opening after cutting.

CN1CCC(=C2c3ccccc3CC(=O)c3sccc32)CC1 [ketotifen]
tissue stiffness (Young's modulus) (K7M2wt tumors [1]): similarly benefited
Young's modulus (tissue stiffness) (MCA205 tumors [2]): 20 kPa
MC degranulation (β-hex release) (murine MC/9 MCs; 24 hours treatment, then 30 minute sensitization with C48/80): inhibits degranulation in a dose-dependent manner
reduction in β-hex release compared to C48/80 treatment (murine MC/9 MCs; ketotifen 100 μg/ml): more than 50%
mRNA expression of ICAM (MCA205 tumors [3]): increased
mRNA expression of P-selectin (P-sel) (MCA205 tumors [3]): increased
mRNA levels of IFN-γ (MCA205 tumors [3]): upregulated; also recorded: upregulation
mRNA levels of VEGF (MCA205 tumors [3]): without affecting; also recorded: a reduction in VEGF transcripts was not observed
mRNA levels of collagen I encoding gene (Col1A1) (MCA205 tumors [3]): reduced the mRNA levels of collagen I encoding gene (Col1A1) and connective tissue growth factor (CTGR), although not to a statistically significant extent
mRNA levels of connective tissue growth factor (CTGR) (MCA205 tumors [3]): reduced the mRNA levels of collagen I encoding gene (Col1A1) and connective tissue growth factor (CTGR), although not to a statistically significant extent
mRNA levels of hyaluronan synthase 2 (Has2) (MCA205 tumors [3]): no effect
mRNA levels of hyaluronan synthase 3 (Has3) (MCA205 tumors [3]): no effect
CAF levels and proliferation activity (α-SMA, Ki-67) (K7M2wt tumors [4]): decrease
CAF levels and proliferation activity (α-SMA, Ki-67) (MCA205 tumors [5]): decrease
tumor opening after cutting (solid stress) (MCA205 tumors [6]): smaller opening
